Assay results from publication PMC5207512, “Inhibition of Helicobacter pylori and Its Associated Urease by Palmatine: Investigation on the Potential Mechanism” (PLoS ONE, 2017).
≈ marks a conversion by molar mass, not a printed value. Where “and” joins values, the source holds several entries; their conditions need not be identical. Identical values can stand only once.

Key:
[1] = set-up: method as in PMID 23159469; details: among berberine, coptisine, palmatine and epiberberine; in vitro and in vivo assays; cited from earlier work
JBU = system: JBU; set-up: method as in PMID 26669678; details: cited from earlier work
HPU = system: HPU; set-up: method as in PMID 26669678; details: cited from earlier work
H. pylori SS1 = test: MIC by agar dilution method; type: cell-based; details: Helicobacter pylori
Experimental: (§1) A total of four H. pylori strains were studied, including three reference strains ATCC 43504, NCTC 26695 and SS1 gifted from Professor Richard Ferrero, Monash University, Australia, and one clinical isolate ICDC 111001 obtained from Professor Zhang Jianzhong, Chinese Center of Disease Control and Prevention. […] The MICs of Pal against the four H. pylori strains were evaluated by using agar dilution method. […] H. pylori strains were harvested and resuspended in PBS (1.0–2.0 McFarland were defined based on the strain properties). […] After 72 h, the MIC values were determined as the lowest concentration at which there was no strain growth judged by visual examination. Metronidazole was used as the positive control. The experiments were evaluated under two different pH (7.4 and 5.3) conditions and repeated twice.

H. pylori ATCC 43504 = test: MIC by agar dilution method; type: cell-based; details: Helicobacter pylori
Experimental: as §1

H. pylori NCTC 26695 = test: MIC by agar dilution method; type: cell-based; details: Helicobacter pylori
Experimental: as §1

[2] = system: H. pylori ICDC 111001 (clinical isolate); test: MIC by agar dilution method; type: cell-based; details: Helicobacter pylori
Experimental: as §1

H. pylori urease (HPU) = target: T1, H. pylori urease (HPU) (Helicobacter pylori, UniProt P69996); test: biochemical; type: biochemical; details: Fig 4C HPU; BA or NaF 5 mM preincubated 20 min, Pal 0.5 mM 20 min
T1 construct: HPU was prepared as previously described; made in house
T1 sequence (P14916 whole entry): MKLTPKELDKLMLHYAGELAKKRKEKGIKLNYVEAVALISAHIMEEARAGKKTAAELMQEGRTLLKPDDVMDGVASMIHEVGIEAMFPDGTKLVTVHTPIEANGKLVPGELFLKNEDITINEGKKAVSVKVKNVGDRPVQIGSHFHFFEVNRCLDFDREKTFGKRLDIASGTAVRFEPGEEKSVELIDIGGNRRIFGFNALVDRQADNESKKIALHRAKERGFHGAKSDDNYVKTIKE
T1 sequence (P69996 whole entry): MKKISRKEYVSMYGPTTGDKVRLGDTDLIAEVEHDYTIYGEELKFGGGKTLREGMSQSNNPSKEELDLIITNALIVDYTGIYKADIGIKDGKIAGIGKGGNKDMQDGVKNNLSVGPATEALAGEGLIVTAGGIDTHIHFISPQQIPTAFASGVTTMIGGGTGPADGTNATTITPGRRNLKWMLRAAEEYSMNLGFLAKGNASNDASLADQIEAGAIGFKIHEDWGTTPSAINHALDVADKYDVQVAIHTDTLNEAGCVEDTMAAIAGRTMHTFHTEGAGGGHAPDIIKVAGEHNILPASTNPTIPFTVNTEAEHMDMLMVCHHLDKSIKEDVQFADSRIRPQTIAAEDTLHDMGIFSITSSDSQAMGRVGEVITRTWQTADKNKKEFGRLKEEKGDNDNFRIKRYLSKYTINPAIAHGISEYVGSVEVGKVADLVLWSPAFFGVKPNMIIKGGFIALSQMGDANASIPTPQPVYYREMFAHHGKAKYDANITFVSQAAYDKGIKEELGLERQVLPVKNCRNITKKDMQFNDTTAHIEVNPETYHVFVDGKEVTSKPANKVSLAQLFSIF
Experimental: (§2) For the protection with inorganic compounds (BA and NaF), 0.25 mg/mL urease (HPU or JBU) was preincubated with 5 mM BA or 5 mM NaF for 20 min. Following preincubation, each sample of the protected urease was incubated with 0.5 mM Pal for 20 min. The samples containing a proper volume of respective buffer instead of Pal served as comparison with the abovementioned systems. The experiments were triply performed.

jack bean urease (JBU) = target: T2, jack bean urease (JBU) (Canavalia ensiformis, UniProt P07374); test: biochemical; type: biochemical; details: Fig 4D JBU; BA or NaF 5 mM preincubated 20 min, Pal 0.5 mM 20 min
T2 construct: Urease from jack bean (Canavalia ensiformis, JBU); purchased Sigma-Aldrich (St Louis, MO, USA) type III (catalogue number not given)
T2 sequence (P07374 whole entry, looked up): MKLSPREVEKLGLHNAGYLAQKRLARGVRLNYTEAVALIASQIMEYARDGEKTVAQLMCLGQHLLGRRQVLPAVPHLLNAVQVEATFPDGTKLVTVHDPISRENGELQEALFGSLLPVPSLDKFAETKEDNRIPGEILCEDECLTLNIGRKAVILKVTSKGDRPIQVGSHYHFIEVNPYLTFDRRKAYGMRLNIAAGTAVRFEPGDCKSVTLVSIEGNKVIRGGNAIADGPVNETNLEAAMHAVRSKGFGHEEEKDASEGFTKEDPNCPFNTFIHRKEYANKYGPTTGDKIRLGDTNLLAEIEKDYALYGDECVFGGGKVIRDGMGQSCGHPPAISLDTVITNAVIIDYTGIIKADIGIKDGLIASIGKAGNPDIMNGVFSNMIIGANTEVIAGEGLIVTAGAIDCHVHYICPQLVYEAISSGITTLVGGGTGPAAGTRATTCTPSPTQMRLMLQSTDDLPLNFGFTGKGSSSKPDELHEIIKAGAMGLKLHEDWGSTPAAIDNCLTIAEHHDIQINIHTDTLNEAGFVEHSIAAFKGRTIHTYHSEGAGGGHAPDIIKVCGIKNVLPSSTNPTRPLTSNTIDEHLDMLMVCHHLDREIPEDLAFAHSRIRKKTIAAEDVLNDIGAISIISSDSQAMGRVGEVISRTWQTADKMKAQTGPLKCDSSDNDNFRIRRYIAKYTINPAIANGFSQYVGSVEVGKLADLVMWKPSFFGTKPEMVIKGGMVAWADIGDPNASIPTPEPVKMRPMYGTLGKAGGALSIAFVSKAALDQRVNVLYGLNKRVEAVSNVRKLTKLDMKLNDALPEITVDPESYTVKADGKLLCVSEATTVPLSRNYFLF
Experimental: as §2

COc1ccc2cc3[n+](cc2c1OC)CCc1cc2c(cc1-3)OCO2 [berberine]
toxicity [1]: relatively more toxic | IC50 (JBU): > 13 mM | IC50 (HPU): 10.2 ± 1.1 mM

Cc1ncc([N+](=O)[O-])n1CCO [Met, Metronidazole]
MIC (H. pylori SS1; pH 5.3, 72 h): 0.5 µg/mL (≈ 2.92 µM) | MIC (H. pylori SS1; pH 7.4, 72 h): 0.5 µg/mL (≈ 2.92 µM) | MIC (H. pylori ATCC 43504; ATCC43504, pH 5.3, 72 h): 0.5 µg/mL (≈ 2.92 µM) | MIC (H. pylori ATCC 43504; ATCC43504, pH 7.4, 72 h): 0.5 µg/mL (≈ 2.92 µM) | MIC (H. pylori NCTC 26695; NCTC26695, pH 5.3, 72 h): 2 µg/mL (≈ 11.7 µM) | MIC (H. pylori NCTC 26695; NCTC26695, pH 7.4, 72 h): 2 µg/mL (≈ 11.7 µM) | MIC ([2]; pH 5.3, 72 h): 2 µg/mL (≈ 11.7 µM) | MIC ([2]; pH 7.4, 72 h): 2 µg/mL (≈ 11.7 µM)

[F-].[Na+] [NaF, sodium fluoride]
Residual urease activity (percent of control) (H. pylori urease (HPU)): 54.6% and 54.7779% and 54.0024% and 55.0707% | Residual urease activity (percent of control) (jack bean urease (JBU)): 42.9% and 43.7771% and 43.724% and 41.2392%

OB(O)O [BA, boric acid]
Residual urease activity (percent of control) (H. pylori urease (HPU)): 98.6% and 98.6098% and 99.1614% and 98.0689% | Residual urease activity (percent of control) (jack bean urease (JBU)): 86.6% and 87.7694% and 84.1052% and 87.7801%
